Experimental data reported in US20040214850A1, “1-glyoxylamide indolizines for treating cancer” (Synta Pharmaceuticals Corp., priority 2001, published 2004).

Assays:
[1] = tested on: U937 (human leukemia); assay: In vitro anti-cancer activity, MTS growth inhibition assay, U-937; assay type: cell-based; details: U-937 cells, 72 hours
Procedure: (§1) The in vitro activity of the compounds was determined in the following seven human cancer cell lines. MDA435 (human breast cancer), MIP101 (human colon cancer), HL-60 (human myeloid leukemia), U937 (human leukemia), p388 (murine leukemia), DU-145 (human prostate cancer), MES-SA (human uterine sarcoma) were obtained from ATCC (American Type of Culture Collection).
(§2) The cell lines were maintained in RPMI1640 (GIBCO) supplemented with 10% FCS, 100 units/ml penicillin, 100 ug/ml streptomycin, and 2 mM L-glutamine. The cells were split every third day and diluted to a concentration of 2×10^5 cells/ml one day before experiment. All experiments were performed on exponentially growing cell culture. Cell densities were 2.5×10^4 cells/ml in all experiment.
(§3) A stock solution of Compound (1) and a stock solution of Taxol (positive control) were prepared by dissolving the compound at a concentration of 1 mM in 100% DMSO. Final concentrations were obtained by diluting the stock solution directly into the tissue culture medium. Cells were incubated with varying concentrations of the compounds for 72 hours and the IC50 was determined by MTS (i.e. 3-(4,5,-dimethylthiazol-2-yl)-2,5-diphenyl tetrazolium bromide) assay. IC50 stands for the concentration of compound required to inhibit 50% tumor cell growth.

[2] = tested on: human breast MDA435 tumors; assay: Tumor growth inhibition assay, human breast tumor (MDA435) xenograft in nude mice; assay type: in vivo, nude mice (CD-1 nu/nu)
Procedure: The in vivo anti-cancer efficacy of Compound (1) was assessed in tumor bearing mice using a tumor growth inhibition assay. Human breast tumor (MDA-435) cells were implanted by injection of a tumor cell suspension subcutaneously in the flank of a nude mouse. Treatment of the tumor with an experimental compound began after the tumor had been established (volume was approximately 100 mm^3). The animal then began a multiple injection schedule where the compound was administered orally. Tumors were measured two times a week. During the course of this assay, animals were monitored daily for signs of toxicity including body weight loss.
A supplemented media was prepared from 50% DMEM/Dulbecco Modified Eagle Medium (High Glucose), 50% RPMI 1640, 10% FBS/Fetal Bovine Serum (Hybridoma Tested; Sterile Filtered), 1% L-Glutamine, 1% Penicillin-Streptomycin, 1% MEM Sodium Pyruvate, 1% MEM Non-Essential Amino Acids. […]
The flask was washed with 10 ml of sterile room temperature phosphate buffered saline (PBS). […] The supernatant was aspirated and the cell pellet was resuspended in 10 ml of supplemented media and the cells were counted. […]
The above procedure for trypsinizing and centrifuging the cells were followed. The supernatant was aspirated and the cell pellet was resuspended in 10 ml of sterile PBS and the cells were counted. […]

[3] = tested on: p388 (murine leukemia); assay: In vitro anti-cancer activity, MTS growth inhibition assay, p388; assay type: cell-based; details: Mus musculus, p388 cells, 72 hours
Procedure: as §1, §2, §3

[4] = tested on: HL-60/TX1000 (multi-drug resistant human myeloid leukemia cell line); assay: In vitro activity against multi-drug resistant cell line HL-60/TX1000; assay type: cell-based; details: HL60/TX1000, HL-60/TX1000 MDR cells (Table 2)
Procedure: as §2, §3
In vitro activity was determined in two MDR (Multi Drug Resistant) human cancer cell lines. HL-60/TX1000 was isolated in vitro by subculturing HL-60 in progressively higher concentration of Taxol. HL-60/TX1000 cells over-express mdr-1 mRNA and p-glycoprotein, as determined by western blot and immunofluorescence labeling with antiPGP antibodies. The cell is cross-resistant to Taxol, Vincristine, Adriamycin, Etoposide and Doxorubicin. MES-SA/Dx5 was established in the presence of increasing concentrations of Doxorubicin. […] MES-SA/Dx5 was purchased from ATCC.
The procedure for culturing the cells and assaying cancer cell growth inhibition were as described in Example 3.

[5] = tested on: seven cancer cell lines from different tissue types; assay: Text summary: in vitro activity over the seven cancer cell lines of Table 1; assay type: cell-based; details: range over the seven cell lines of Table 1; read-out: IC50 against seven cancer cell lines
Procedure: as §1, §2, §3

## Cc1cc(NC(=O)C(=O)c2cc(Cc3ccc(C#N)cc3)n3ccccc23)sn1 [Compound (1), 2-(3-(4-cyanobenzyl)-indolizin-1-yl)-N-(3-methyl-isothiazol-5-yl)-2-oxo-acetamide]
[1]
  IC50: 50 nM
[2]; MDA435 in nude mice, 25 mg/kg and 50 mg/kg orally, 3 times a week for 3 weeks, FIG. 1
  tumor growth inhibition: significantly inhibits tumor growth
[2]; MDA435 tumors in nude mice, administered orally
  reduction of the volume of tumors: greater than 50%
[3]
  IC50: 10 nM
[4]
  IC50: 20 nM
[5]
  IC50: 10 to 50 nM
